Source: PMC5443783, “Prostaglandin E2 glyceryl ester is an endogenous agonist of the nucleotide receptor P2Y6” (Scientific Reports, 2017)
Entries after “also recorded” stand apart in the source; their conditions may differ. Blank lines part the entries; values can stand above or below the compound they belong to.

Key:
Format in all cases: cell-based
[1] = biological target: T1, cannabinoid receptor 2 (Cnr2) (Homo sapiens, UniProt P34972); experiment: Intracellular Ca2+ measurement in CNR2-transfected HEK293 cells; details: 200 nM of 2-AG, Fig. 2c
T1 construct: expressed in transfected cells; host or cells: HEK293
Description: RAW264.7 cells were grown in DMEM supplemented with 10% FBS, A7r5 (rat […]) cells in DMEM with 10% FBS, and A431 (human squamous carcinoma) cells in RPMI supplemented with 10% FBS. All cell lines were grown at 37 °C in a humidified 5% CO2 incubator. For functional assays, receptor constructs were heterologously expressed in human embryonic kidney (HEK293) cells upon transient or stable transfection. Cells were grown in DMEM/F12 supplemented with 10% FBS, 100 units/ml penicillin, and 100 µg/ml streptomycin. For the cAMP-inhibition assay, ERK1/2 phosphorylation assay, and Ca^2+ mobilization assay, cells were split into 96-well plates (2.0 × 10^4 cells/well) and transfected with 250 ng vector construct using MACSfectin™ (Miltenyi Biotec, Germany) according to manufacturer’s protocol. Empty vector (mock) served as the negative control. For siRNA experiments, cells were seeded in 6-well plates (4.0 × 10^5 and 6.0 × 10^5 cells/well for RAW264.7 and H1819, respectively). […]
For fluorometric measurements of intracellular Ca^2+ levels with the FlexStationII instrument (Molecular Devices), RAW264.7 and H1819 cells were seeded into 96-well plates (3.0 × 10^4 cells/well) 24 h prior to assay. […] Fold-response was calculated by RFUmax − RFUmin (ligand)/RFUmax − RFUmin (vehicle). EC50 values were calculated by using GraphPad Prism6 software (GraphPad, USA).

[2] = biological target: T2, P2Y1 (Homo sapiens, UniProt P47900); experiment: Intracellular Ca2+ release in HEK293 cells transfected with P2RY1; details: HEK293 transfected with P2RY1, Fig. 3f
T2 construct: expressed in transfected cells; host or cells: HEK293
Description: (§1) For fluorometric measurements of intracellular Ca^2+ levels with the FlexStationII instrument (Molecular Devices), RAW264.7 and H1819 cells were seeded into 96-well plates (3.0 × 10^4 cells/well) 24 h prior to assay. Ca^2+ measurements with transiently transfected HEK293 cells were performed 48 h after transfection. Cells were loaded with 200 µl Calcium 5 reagent (Explorer Kit, Molecular Devices, USA) for 60 min at 37 °C, and the assay was performed as described. Agonists and inhibitors were solved in DMSO (100x) and diluted […] in 96-well compound plates containing HBSS. 50 µl of compound solution were added to the assay plate resulting in final concentration of 1% DMSO. Fold-response was calculated by RFUmax − RFUmin (ligand)/RFUmax − RFUmin (vehicle). EC50 values were calculated by using GraphPad Prism6 software (GraphPad, USA).

[3] = biological target: T3, P2Y12 (Homo sapiens, UniProt Q9H244); experiment: Intracellular Ca2+ release in HEK293 cells transfected with P2RY12; details: HEK293 transfected with P2RY12, Fig. 3f
T3 construct: expressed in transfected cells; host or cells: HEK293
Description: as §1

[4] = biological target: T4, P2Y6 (Homo sapiens, UniProt Q15077); experiment: Functional readouts at P2Y6, summary statements; details: Fig. 5a–d
[5] = biological target: T4, P2Y6; experiment: Intracellular Ca2+ measurement in HEK293 cells transfected with P2RY6; design: expressed in transfected cells; host or cells: HEK293; details: HEK293 stably transfected with P2RY6, Fig. 5c,d
Description: RAW264.7 cells were grown in DMEM supplemented with 10% FBS, A7r5 (rat […]) cells in DMEM with 10% FBS, and A431 (human squamous carcinoma) cells in RPMI supplemented with 10% FBS. All cell lines were grown at 37 °C in a humidified 5% CO2 incubator. For functional assays, receptor constructs were heterologously expressed in human embryonic kidney (HEK293) cells upon transient or stable transfection. Cells were grown in DMEM/F12 supplemented with 10% FBS, 100 units/ml penicillin, and 100 µg/ml streptomycin. For the cAMP-inhibition assay, ERK1/2 phosphorylation assay, and Ca^2+ mobilization assay, cells were split into 96-well plates (2.0 × 10^4 cells/well) and transfected with 250 ng vector construct using MACSfectin™ (Miltenyi Biotec, Germany) according to manufacturer’s protocol. Empty vector (mock) served as the negative control. For siRNA experiments, cells were seeded in 6-well plates (4.0 × 10^5 and 6.0 × 10^5 cells/well for RAW264.7 and H1819, respectively). RAW264.7 and H1819 cells were transfected with 150 pMol of mP2RY6 siRNA and hP2RY6 siRNA (Santa Cruz Biotechnology, USA), respectively, using Viromer® Blue (Lipocalyx, Germany). As a negative control, control siRNA-A (Santa Cruz Biotechnology, USA) was used. FITC-labelled siRNA served as a transfection control.
To generate a cell line stably expressing P2Y6, HEK293 cells were seeded in 6-well plates (7.5 × 10^5 cells/well) and transfected with 3 µg vector using MACSfectin™ as transfection regent according to the manufacturer’s protocol. The pIRES-eGFP vector served as negative control. Stably transfected HEK293 cells were cultured in the presence of geneticin (500 µg/ml) for selection.
as §1

[6] = biological target: T4, P2Y6; experiment: IP1 accumulation assay in HEK293 cells transfected with wildtype P2RY6; design: expressed in transfected cells; host or cells: HEK293; details: HEK293 stably transfected with P2RY6, increasing antagonist concentrations, Fig. 5a,b
Description: To measure intracellular IP3 the HitHunter® Inositol (1,4,5) Triphosphate Assay (DiscoveRx, USA) was used according to manufacturer′s protocol. HEK293 cells stably transfected with hP2RY6 were seeded in a 384-well Black microtiter plate (15,000 cells/well) (Greiner Bio One, Germany) and incubated with indicated concentrations of UDP and PGE2-G for 20 seconds. Reaction was stopped by adding 5 µl 0.2 N perchloric acid and measurement of IP3 was performed with the Fusion AlphaScreen multilabel reader (PerkinElmer Life Sciences) according to manufacturer′s protocol. To measure IP1, HEK293 cells expressing wildtype and mutant P2Y6 were seeded into 384-well plates (5,000 cells/well) 24 h prior assay. After aspiration of the medium, cells were incubated with indicated concentrations of agonists/antagonist for 1 h. IP1 measurements using the IP-one HTFR® assay kit (Cisbio assays, USA) were performed according to manufacturer′s protocol. The assays were performed with a final concentration of 1% DMSO.

[7] = biological target: T4, P2Y6; experiment: Agonist-induced receptor internalization, cell surface ELISA; design: expressed in transfected cells; host or cells: HEK293; details: Fig. 5e
Description: To estimate cell surface expression of heterologously expressed receptors carrying an N-terminal HA tag, an indirect cellular ELISA was used[57]. To determine the endogenous cell surface expression of P2Y6, the same ELISA procedure was performed with minor modifications. Briefly, after 4% paraformaldehyde fixation and blocking with 10% FBS, cells were incubated with the primary anti-P2Y6 antibody (sc-15215; Santa Cruz Biotechnology, USA) in 1:1,000 dilution for 1 h. After washing with PBS, cells were incubated with peroxidase-conjugated secondary antibody anti-goat IgG (sc-2020, Santa Cruz Biotechnology, USA) in 1:5,000 dilutions.

T4 sequence (Q15077 whole entry): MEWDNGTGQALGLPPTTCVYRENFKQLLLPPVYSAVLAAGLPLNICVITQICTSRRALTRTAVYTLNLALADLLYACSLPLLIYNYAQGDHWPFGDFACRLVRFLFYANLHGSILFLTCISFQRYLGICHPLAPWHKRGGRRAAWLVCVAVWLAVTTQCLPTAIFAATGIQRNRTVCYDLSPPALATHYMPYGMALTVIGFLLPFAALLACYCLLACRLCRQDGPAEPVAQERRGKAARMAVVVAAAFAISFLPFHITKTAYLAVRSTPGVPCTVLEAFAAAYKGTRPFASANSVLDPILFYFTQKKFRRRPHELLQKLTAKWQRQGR
T1 sequence (P34972 whole entry): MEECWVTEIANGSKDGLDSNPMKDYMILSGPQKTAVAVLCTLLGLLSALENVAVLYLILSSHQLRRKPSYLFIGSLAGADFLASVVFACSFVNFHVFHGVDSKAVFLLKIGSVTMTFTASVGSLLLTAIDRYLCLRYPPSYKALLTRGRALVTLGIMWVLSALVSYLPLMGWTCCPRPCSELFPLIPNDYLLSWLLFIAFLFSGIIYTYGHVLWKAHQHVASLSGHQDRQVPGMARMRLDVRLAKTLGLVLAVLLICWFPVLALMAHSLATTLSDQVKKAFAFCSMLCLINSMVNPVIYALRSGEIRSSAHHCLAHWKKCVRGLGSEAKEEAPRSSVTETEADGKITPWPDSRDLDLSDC
T2 sequence (P47900 whole entry, species assumed): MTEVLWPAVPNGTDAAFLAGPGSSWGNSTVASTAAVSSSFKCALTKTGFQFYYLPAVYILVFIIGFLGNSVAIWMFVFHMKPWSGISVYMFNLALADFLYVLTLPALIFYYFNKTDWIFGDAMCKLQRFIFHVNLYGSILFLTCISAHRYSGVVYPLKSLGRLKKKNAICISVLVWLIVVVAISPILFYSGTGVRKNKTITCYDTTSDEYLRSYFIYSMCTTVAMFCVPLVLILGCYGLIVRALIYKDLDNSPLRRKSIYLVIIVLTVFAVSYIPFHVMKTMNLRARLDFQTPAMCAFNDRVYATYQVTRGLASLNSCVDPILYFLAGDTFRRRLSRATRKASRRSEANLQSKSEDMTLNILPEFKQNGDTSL
T3 sequence (Q9H244 whole entry, species assumed): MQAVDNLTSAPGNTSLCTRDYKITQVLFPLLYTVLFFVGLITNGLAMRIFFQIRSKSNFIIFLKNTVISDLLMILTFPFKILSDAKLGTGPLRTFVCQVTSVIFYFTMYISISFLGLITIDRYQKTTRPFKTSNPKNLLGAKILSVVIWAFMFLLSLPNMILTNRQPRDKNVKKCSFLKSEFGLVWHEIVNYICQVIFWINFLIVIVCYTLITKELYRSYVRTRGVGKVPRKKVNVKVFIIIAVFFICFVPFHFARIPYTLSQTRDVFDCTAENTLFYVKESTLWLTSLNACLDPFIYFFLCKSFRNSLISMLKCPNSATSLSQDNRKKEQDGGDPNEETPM

Compound: CCCCC/C=C\C/C=C\C/C=C\C/C=C\CCCC(=O)OC(CO)CO [2-AG, 2-arachidonoylglycerol]
effect on intracellular Ca2+ [1]: robust intracellular Ca^2+ increase; also recorded: elevated intracellular Ca^2+

Ca2+ release [2]: led to Ca^2+ release
Ca2+ release [3]: led to Ca^2+ release
Compound: Nc1ncnc2c1ncn2[C@@H]1O[C@H](COP(=O)(O)OP(=O)(O)O)[C@@H](O)[C@H]1O [ADP]

Compound: S=C=Nc1cccc(NC(=S)NCCCCNC(=S)Nc2cccc(N=C=S)c2)c1 [MRS2578]
mode of antagonism [4]: antagonist with mixed properties (competitive and non-competitive)
effect of antagonist on UDP- and PGE2-G-triggered Ca2+ release [5]: same effects; also recorded: reduced both, the efficacies and potencies
effect of antagonist on UDP- and PGE2-G-triggered IP1 accumulation [6]: reduced both the efficacies and potencies; also recorded: reduced both, the efficacies and potencies
effect of antagonist on agonist-induced internalization [7]: blocked the internalization
